Source: patent US20090047235A1, “Paratransgenesis to Control Termites or Other Social Insects” (priority 2007, published 2009)

What was measured:
[1] = system: termite workers (gut protozoa); test: Defaunation of termites by feeding Metronidazole-treated filter paper; format: in vivo; details: for time to death of defaunated termites: Metronidazole feeding
Protocol: Using an aspirator, six groups of 100 termite workers each were collected and placed in Petri dishes containing damp filter paper. In addition, 10 soldiers were added to each group to enhance the overall survivorship rate. […] The remaining three groups of termites were transferred to Petri dishes containing paper that had been dampened with autoclaved tap water. All six replicates were transferred to an incubator and mortality was recorded every 24 hours. […] Once defaunation had been confirmed, all six groups were thereafter provided only with filter paper dampened with sterile tap water. Mortality was recorded each day. Statistically significant differences in mortality between treatment groups and control groups were established using 95% confidence intervals.

[2] = system: termite protozoa (Pseudotrichonympha grassii Koidzumi, Holomastigotoides hartmanni Koidzumi, Spirotrichonympha leidyi Koidzumi); test: In vitro lytic peptide test on anaerobic cultures of termite hindgut protozoa; format: cell-based; details: 50 μM peptide, after 5-10 minutes
Source text: (§1) Three protozoal species (Pseudotrichonympha grassii Koidzumi, Holomastigotoides hartmanni Koidzumi, and Spirotrichonympha leidyi Koidzumi) from the termite hindgut were maintained for 24 hrs in vitro, a sufficient time to allow testing of lytic peptides. The protozoa were removed from the termite hindgut in an anaerobic glove-box, and placed in sterile, sparged (Hydrogen 2.5%, Carbon dioxide 5% and Nitrogen 92.5%) Trager U (pH 7.0) saline solution. Positive controls for testing lytic peptides were established and validated with these cultures. The efficacy of the lytic peptides was then routinely tested prior to experiments to confirm both aerobic activity (using the “standard” T. pyriformis) and anaerobic activity (using cultures of the termite protozoa). One hundred percent mortality was observed after 5-10 minutes when any of these protozoa were treated with any one of three lytic peptides (hecate, melittin, or cecropin) at a 50 μM concentration, confirming the toxicity of the lytic peptides towards termite protozoa in an anaerobic environment that mimicked termite hindgut conditions.
(§2) The efficacy of each lytic peptide solution was confirmed using T. pyriformis and termite protozoa cultures in vitro before each microinjection test. A 5 ml overnight culture of T. pyriformis was washed three times in sterile 10 mM Tris-HCl (pH 7.4), and suspended in 1 ml 10 mM Tris-HCl (pH 7.4). Subsequently, 100 μl aliquots were placed in a Sigmacote™-treated, 96-well microplate. The lytic peptides were dissolved in 10 mM Tris-HCl. A range of concentrations (25-500 μM) of lytic peptide was added to each of several wells, and the remaining wells were treated with 10 mM Tris-HCl (pH 7.4) as control. After confirming aerobic activity of the lytic peptide concentrations against T. pyriformis, lytic peptide efficacy was then tested against anaerobic cultures of termite protozoa. Sparged lytic peptide was added anaerobically to the sparged cultures of termite protozoa, and mortality was observed.

Tetrahymena pyriformis = test: In vitro lytic peptide test on aerobic Tetrahymena pyriformis cultures; format: cell-based; details: 50 μM peptide, after 5-10 minutes
Protocol: The initial positive control for testing the efficacy of lytic peptide solutions was the aerobic, laboratory standard protozoan Tetrahymena pyriformis, cultures of which were purchased from Carolina Biological (#13-1182A) and maintained in proteose peptone media. Before each experiment, lytic peptide activity was tested using T. pyriformis.
as §1
as §2, with “After confirming aerobic activity of the lytic peptide concentrations against T. pyriformis, lytic peptide efficacy was then tested against anaerobic cultures of termite protozoa. Sparged lytic peptide was added anaerobically to the sparged cultures of termite protozoa, and mortality was observed.” left out

[3] = system: protozoa in the hindgut of termite workers; test: In vivo microinjection of lytic peptides into the termite hindgut; details: for relative effectiveness against protozoa in vivo among peptides tested: hindgut microinjection, 50 μM; for time to defaunation of injected termite workers: ~0.5 μl of 50 μM lytic peptide injected into hindgut
Source text: A termite microinjection protocol was used to confirm directly the effect of lytic peptide in the hindgut. We first optimized the protocol by finding preferred conditions for each of the following: the time to immobilize a termite by cooling on ice; suitable methods for anchoring the termite in place for microinjection; and the maximum volume that could consistently be injected into the hindgut without causing direct trauma. Microinjection directly to the termite hindgut avoided the possibility of peptide degradation by non-specific protease activity in the foregut or midgut.
Termite workers were immobilized by chilling on ice for 1.5 min, and were then mechanically aspirated, head-first, into a modified pipette tip that had been trimmed to expose the terminus of the termite. This “termite holder” was attached to a micromanipulator, and the insect was advanced to insert a Sigmacote™-treated, fine glass needle into the anus of the termite. Lytic peptide or control solution was injected under the control of a high-speed, electronic foot pedal with pulse length control, to ensure that a constant volume was reproducibly injected into each insect. Approximately 0.5 μl of 10 mM Tris-HCl (pH 7.4) (control) or 0.5 μl of 50 μM lytic peptide dissolved in 10 mM Tris-HCl (pH 7.4) was injected into the hindgut of each termite. A second control group of non-injected termite workers was also included. The termites were housed in 3 cm Petri dishes, in which damp filter paper was provided. At 24, 48, and 72 hrs guts from randomly selected termites from each treatment were extirpated, and observations were made of the presence and motility of protozoa.

[4] = system: termite workers (gut protozoa); test: Termite feeding experiments with yeast expressing lytic peptide; format: in vivo; details: summary statement
Protocol: Lytic peptide-expressing and control Kluyveromyces lactis strains were used in termite feeding experiments. Aliquots of 2 ml YPGal in Sigmacote™-treated 15 ml Falcon tubes were inoculated with yeast, which were then grown for 3 days, with shaking at 225 rpm at 30° C. The strains grown were K. lactis engineered with the expression vector (control), K. lactis expressing the control protein MBP, and K. lactis expressing a lytic peptide gene (either hecate or hecate-GFP fusion). The cultures were washed three times with sterile, deionized water, and re-suspended in 500 μl sterile 10 mM galactose. Galactose was used because the coding sequences were under the control of the LAC4 promoter, a strong promoter whose activity is induced by galactose. Secretion of active lytic peptide by the transformed K. lactis into the growth media was verified using in vitro cultures of the protozoa T. pyriformis.
Termites were collected in New Orleans, La., and were maintained on damp cardboard in plastic buckets at room temperature. Only termites that had been held in the laboratory less than 4 weeks were used in the feeding experiments. […]
Termite mortality was recorded every three days. The number of viable termites was also recorded, as cannibalism in laboratory colonies has sometimes been observed. […]

[5] = system: termite symbiotic protozoa; details: preliminary data, poster 2002; cited from earlier work

Compound	mortality of defaunated termites versus controls ([1]; 95% confidence intervals did not overlap)	time to death of defaunated termites [1]	time to death of defaunated termites ([1]; listed as metronidazole)	time to defaunation of termite workers ([1]; filter paper treated with 400 μL Metronidazole (2 g/L))	mortality of termite protozoa [2]	mortality of T. pyriformis (Tetrahymena pyriformis)	relative effectiveness against protozoa in vivo among peptides tested [3]	time to defaunation of injected termite workers [3]	effect on protozoa in the termite gut [4]	time to death of the insect without protozoa [4]	killing of termite symbiotic protozoa in vitro [5]
Cc1ncc([N+](=O)[O-])n1CCO [Metronidazole]	significantly higher mortality	six	six and about six	≤ 7 days	–	–	–	–	–	–	–
CC[C@H](C)[C@H](NC(=O)CN)C(=O)NCC(=O)N[C@@H](C)C(=O)N[C@H](C(=O)N[C@@H](CC(C)C)C(=O)N[C@@H](CCCCN)C(=O)N[C@H](C(=O)N[C@@H](CC(C)C)C(=O)N[C@H](C(=O)N[C@H](C(=O)NCC(=O)N[C@@H](CC(C)C)C(=O)N1CCC[C@H]1C(=O)N[C@@H](C)C(=O)N[C@@H](CC(C)C)C(=O)N[C@H](C(=O)N[C@@H](CO)C(=O)N[C@@H](Cc1c[nH]c2ccccc12)C(=O)N[C@H](C(=O)N[C@@H](CCCCN)C(=O)N[C@@H](CCCNC(=N)N)C(=O)N[C@@H](CCCCN)C(=O)N[C@@H](CCCNC(=N)N)C(=O)N[C@@H](CCC(N)=O)C(=O)N[C@@H](CCC(N)=O)C(N)=O)[C@@H](C)CC)[C@@H](C)CC)[C@@H](C)O)[C@@H](C)O)C(C)C)C(C)C [melittin]	–	–	–	–	One hundred	One hundred	more effective against protozoa in vivo	72 h	–	–	–
cecropin	–	–	–	–	One hundred	One hundred	–	–	–	–	–
falalkalkk alkklkkalk kal (FALALKALKKALKKLKKALKKA; This is the designed peptide known as hecate.)	–	–	–	–	One hundred	One hundred	more effective against protozoa in vivo	72 h	kill all (or at least most) species of protozoa in the termite gut	about six	would kill termite symbiotic protozoa
